In patent US20230271954A1 (Gossamer Bio Services, Inc., priority 2020, published 2023) one finds IC50 data, which are given here for 19 molecules.

One assay deals with DGKα (Homo sapiens, UniProt P23743). The experiment in a line: DGKα biochemical assay (ADP-Glo). The note with it: read-out: DGK α IC50. Put shortly:
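ADP-Glo kinase assay using OAG/PS (1:2) lipid substrate, sonicated, in HEPES pH 7.0 buffer with MgCl2, CaCl2, DTT, BSA, Triton X-100. Enzyme preincubated with compound 30 min at RT; substrate with ATP (DGKα: 400 μM) added, 45 min RT. Luminescence read; % inhibition vs DMSO and no-enzyme controls.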

A further assay has as its target T1, DGKζ (Homo sapiens, UniProt Q13574).
T1 construct: purchased Carna 12-110
Briefly: DGKζ biochemical assay (ADP-Glo). The note with it: read-out: DGK ζ IC50. (ADP-Glo first removes unused ATP, then detects ADP through luciferase.)

Bounds are passed on as bounds.

A word on the IC50: it is the concentration at which inhibition is half-maximal.

T1 sequence (Q13574 1-929 isoform Q13574-4): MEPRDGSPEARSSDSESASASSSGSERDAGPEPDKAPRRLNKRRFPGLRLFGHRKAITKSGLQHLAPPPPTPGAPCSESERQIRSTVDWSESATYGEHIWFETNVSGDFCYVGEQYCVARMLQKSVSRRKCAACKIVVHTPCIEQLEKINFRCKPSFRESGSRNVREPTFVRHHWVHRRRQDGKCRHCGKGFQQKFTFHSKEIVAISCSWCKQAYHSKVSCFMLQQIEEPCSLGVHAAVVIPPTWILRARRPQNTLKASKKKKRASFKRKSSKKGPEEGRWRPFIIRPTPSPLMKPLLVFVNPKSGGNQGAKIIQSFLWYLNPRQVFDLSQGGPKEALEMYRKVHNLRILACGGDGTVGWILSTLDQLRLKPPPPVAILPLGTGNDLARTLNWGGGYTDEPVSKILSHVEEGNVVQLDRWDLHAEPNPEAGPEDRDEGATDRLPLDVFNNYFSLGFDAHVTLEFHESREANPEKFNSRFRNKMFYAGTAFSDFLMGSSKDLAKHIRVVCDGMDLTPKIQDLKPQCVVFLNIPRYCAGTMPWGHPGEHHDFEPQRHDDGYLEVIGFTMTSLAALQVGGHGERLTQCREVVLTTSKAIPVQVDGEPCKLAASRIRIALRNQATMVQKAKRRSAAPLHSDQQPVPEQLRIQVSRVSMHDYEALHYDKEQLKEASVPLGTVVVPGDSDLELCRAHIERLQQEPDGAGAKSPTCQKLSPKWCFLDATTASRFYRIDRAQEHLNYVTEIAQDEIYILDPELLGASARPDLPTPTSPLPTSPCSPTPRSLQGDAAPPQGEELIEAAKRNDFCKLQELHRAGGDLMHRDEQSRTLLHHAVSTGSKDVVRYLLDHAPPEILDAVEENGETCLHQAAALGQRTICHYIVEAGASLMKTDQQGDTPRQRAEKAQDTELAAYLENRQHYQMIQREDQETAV
Sequence of DGKα (P23743 whole entry): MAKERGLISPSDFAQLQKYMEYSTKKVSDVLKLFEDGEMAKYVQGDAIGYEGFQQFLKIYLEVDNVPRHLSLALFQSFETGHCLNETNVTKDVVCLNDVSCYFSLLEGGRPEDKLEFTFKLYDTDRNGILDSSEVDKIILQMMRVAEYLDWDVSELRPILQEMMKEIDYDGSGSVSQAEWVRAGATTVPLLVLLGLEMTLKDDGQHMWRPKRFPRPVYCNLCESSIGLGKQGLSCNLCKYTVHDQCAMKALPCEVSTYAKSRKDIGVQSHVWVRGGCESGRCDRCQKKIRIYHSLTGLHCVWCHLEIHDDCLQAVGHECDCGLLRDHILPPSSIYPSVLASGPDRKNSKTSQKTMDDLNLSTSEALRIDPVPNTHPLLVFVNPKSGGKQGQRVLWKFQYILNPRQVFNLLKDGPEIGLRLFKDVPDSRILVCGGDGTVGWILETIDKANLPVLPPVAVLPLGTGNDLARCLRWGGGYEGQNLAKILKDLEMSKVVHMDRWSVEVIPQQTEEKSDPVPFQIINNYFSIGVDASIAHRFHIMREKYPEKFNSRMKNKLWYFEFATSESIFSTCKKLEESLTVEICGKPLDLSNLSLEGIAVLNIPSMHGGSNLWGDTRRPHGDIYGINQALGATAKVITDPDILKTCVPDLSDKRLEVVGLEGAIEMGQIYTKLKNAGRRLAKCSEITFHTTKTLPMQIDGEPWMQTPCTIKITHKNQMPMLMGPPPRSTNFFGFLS

Turning to `COc1cc(N(CC2CC2)[C@H]2CC[C@@H](N(C)c3c(C#N)c(=O)n(C)c4ccc(Cl)nc34)CC2)cc(F)c1F` [Example 98], the IC50 at DGKα and at DGKζ was 100 to 1000 nM throughout.

Turning to `COc1cc(F)ccc1N(C)[C@H]1CC[C@@H](N(C)c2c(C#N)c(=O)n(C)c3ccc(Cl)nc23)CC1` [Example 45, cis-6-chloro-4-((4-((4-fluoro-2-methoxyphenyl) (methyl)amino)cyclohexyl)(methyl)amino)-1-methyl-2-oxo-1,2-dihydro-1,5-naphthyridine-3-carbonitrile], the IC50 on DGKα lay within 10 to 100 nM; on DGKζ it was 100 to 1000 nM.

In the case of `CC(C)C(=O)N(c1ccc(F)cc1)[C@H]1CC[C@@H](N(C)c2c(C#N)c(=O)n(C)c3ccc(C#N)nc23)CC1` [Example 209, cis-N-(4-((3,6-dicyano-1-methyl-2-oxo-1,2-dihydro-1,5-naphthyridin-4-yl)(methyl)amino)cyclohexyl)-N-(4-fluorophenyl)isobutyramide], the IC50 is 100 to 1000 nM on DGKα and no less than 1000 nM at DGKζ.

In the case of `Cn1c(=O)c(C#N)c(N(C)[C@H]2CC[C@@H](N(C[C@H]3CCCOC3)c3ccc(F)cc3)CC2)c2nc(C#N)ccc21` [Example 68], the IC50 at DGKα was less than 10 nM; on DGKζ it was 10 to 100 nM.

As for `COc1cc(F)ccc1N(C)[C@H]1CC[C@H](N(C)c2c(C#N)c(=O)n(C)c3ccc(Cl)nc23)CC1` [Example 40, trans-6-chloro-4-((4-((4-fluoro-2-methoxyphenyl) (methyl)amino)cyclohexyl)(methyl)amino)-1-methyl-2-oxo-1,2-dihydro-1,5-naphthyridine-3-carbonitrile], the results for the IC50 at DGKα and at DGKζ were 10 to 100 nM and no less than 1000 nM, respectively.

Consider `COc1cc(F)ccc1N(C)[C@H]1CC[C@@H](N(C)c2c(C#N)c(=O)n(C)c3ccc(C#N)nc23)CC1` [Example 64], for which the IC50 on DGKα and at DGKζ was 10 to 100 nM throughout.

With `Cn1c(=O)cc(N[C@H]2CC[C@H](N(CC3CC3)c3ccc(F)cc3)CC2)c2nc(C#N)ccc21` [Example 3R, trans-8-((4-((Cyclopropylmethyl)(4-fluorophenyl)amino)cyclohexyl)amino)-5-methyl-6-oxo-5,6-dihydro-1,5-naphthyridine-2-carbonitrile], the half-maximal inhibitory concentration (IC50) is 10 to 100 nM at DGKα and no less than 1000 nM on DGKζ.

For `Cc1cc(F)ccc1N(CC1CC1)[C@H]1CC[C@H](N(C)c2c(C#N)c(=O)n(C)c3ccc(C#N)nc23)CC1` [Example 73, trans-8-((4-((cyclopropylmethyl)(4-fluoro-2-methylphenyl)amino)cyclohexyl)(methyl)amino)-5-methyl-6-oxo-5,6-dihydro-1,5-naphthyridine-2,7-dicarbonitrile], the IC50 at DGKα and on DGKζ was 10 to 100 nM throughout.

In the case of `Cn1c(=O)c(C#N)c(N(C)[C@H]2CC[C@@H](N(CC3CCC3)c3ccc(F)cc3C(F)F)CC2)c2nc(C#N)ccc21` [Example 180, cis-8-((-4-((cyclobutylmethyl)(2-(difluoromethyl)-4-fluorophenyl)amino)cyclohexyl)(methyl)amino)-5-methyl-6-oxo-5,6-dihydro-1,5-naphthyridine-2,7-dicarbonitrile], the IC50 at DGKα and at DGKζ was 100 to 1000 nM in each case.

Consider `Cn1c(=O)cc(N2CCC(N(CC3CC3)c3ccccc3O)CC2)c2nc(C#N)ccc21` [Example 1A, 8-(4-((Cyclopropylmethyl)(2-hydroxyphenyl)amino)piperidin-1-yl)-5-methyl-6-oxo-5,6-dihydro-1,5-naphthyridine-2-carbonitrile], for which the IC50 was 100 to 1000 nM on DGKα and no less than 1000 nM at DGKζ.

As for `Cn1c(=O)c(C#N)c(N(C)[C@H]2CC[C@H](N(CC3CCC3)c3ccc4c(c3)OCCO4)CC2)c2nc(C#N)ccc21` [Example 171, trans-8-((4-((cyclobutylmethyl)(2,3-dihydrobenzo[b] [1,4]dioxin-6-yl)amino)cyclohexyl)(methyl)amino)-5-methyl-6-oxo-5,6-dihydro-1,5-naphthyridine-2,7-dicarbonitrile], the half-inhibitory concentration (IC50) at DGKα and at DGKζ was 100 to 1000 nM throughout.

Turning to `Cc1cc2c(cc1N(CC1CCC1)[C@H]1CC[C@H](N(C)c3c(C#N)c(=O)n(C)c4ccc(C#N)nc34)CC1)OCO2` [Example 146, trans-8-((4-((cyclobutylmethyl)(6-methylbenzo[d] [1,3]dioxol-5-yl)amino)cyclohexyl)(methyl)amino)-5-methyl-6-oxo-5,6-dihydro-1,5-naphthyridine-2,7-dicarbonitrile], the 50% inhibitory concentration (IC50) on DGKα and at DGKζ was 100 to 1000 nM in each case.

Turning to `Cn1c(=O)cc(N(C)[C@H]2CC[C@@H](N(CC3CC3)c3ccc4c(c3)COC4)CC2)c2nc(C#N)ccc21` [Example 192, cis-8-((4-((cyclopropylmethyl)(1,3-dihydroisobenzofuran-5-yl)amino)cyclohexyl) (methyl)amino)-5-methyl-6-oxo-5,6-dihydro-1,5-naphthyridine-2-carbonitrile], the IC50 was in the range of 10 to 100 nM at DGKα and 100 to 1000 nM on DGKζ.

Take `CC(C)CN(c1ccnn1C)[C@H]1CC[C@H](N(C)c2c(C#N)c(=O)n(C)c3ccc(C#N)nc23)CC1` [Example 176, trans-8-((-4-(isobutyl(1-methyl-1H-pyrazol-5-yl)amino)cyclohexyl)(methyl)amino)-5-methyl-6-oxo-5,6-dihydro-1,5-naphthyridine-2,7-dicarbonitrile]: the IC50 at DGKα and on DGKζ was no less than 1000 nM in each case.

With `Cc1cc(F)cc(N(CC2CC2)[C@H]2CC[C@H](N(C)c3cc(=O)n(C)c4ccc(C#N)nc34)CC2)c1` [Example 89], the 50% inhibitory concentration (IC50) on DGKα and on DGKζ was no less than 1000 nM throughout.

On to `Cc1ccc(N(CC2CCC2)[C@H]2CC[C@@H](N(C)c3cc(=O)n(C)c4ccc(C#N)nc34)CC2)cc1OC(F)F` [Example 147, cis-8-((-4-((cyclobutylmethyl)(3-(difluoromethoxy)-4-methylphenyl)amino)cyclohexyl)(methyl)amino)-5-methyl-6-oxo-5,6-dihydro-1,5-naphthyridine-2-carbonitrile], for which the IC50 lay within 10 to 100 nM at DGKα and 100 to 1000 nM on DGKζ.

As for `COc1ccc(N(C2CC2)[C@H]2CC[C@H](N(C)c3c(C#N)c(=O)n(C)c4ccc(Cl)nc34)CC2)nc1` [Example 3J, trans-6-chloro-4-((4-(cyclopropyl(5-methoxypyridin-2-yl)amino)cyclohexyl)(methyl)amino)-1-methyl-2-oxo-1,2-dihydro-1,5-naphthyridine-3-carbonitrile], the IC50 on DGKα is 10 to 100 nM; on DGKζ, 100 to 1000 nM.

`Cn1c(=O)c(C#N)c(N(C)[C@H]2CC[C@H](N(CC3CC3)c3cccnc3)CC2)c2nc(C#N)ccc21` [Example 103, trans-8-((4-((cyclopropylmethyl)(pyridin-3-yl)amino)cyclohexyl)(methyl)amino)-5-methyl-6-oxo-5,6-dihydro-1,5-naphthyridine-2,7-dicarbonitrile]: the IC50 at DGKα and at DGKζ was no less than 1000 nM in each case.

For `Cn1c(=O)c(C#N)c(N(C)[C@H]2CC[C@H](N(CC3CC3)c3cc(F)cc(F)c3)CC2)c2nc(C#N)ccc21` [Example 86], the IC50 at DGKα and at DGKζ was 100 to 1000 nM throughout.
